Results on 7 compounds are retold here after PubChem BioAssay (NCI).

Structures are written as SMILES. Several values for one entry are separate records, joined by “and”; a condition that tells them apart may be missing. Equal values may be shown once.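 Tested at 5 concentrations; 48 h exposure; 96-well plates; endpoints linearly interpolated, else capped at highest concentration. GI50 is the concentration that inhibits growth by half. TGI denotes the concentration required for complete inhibition of growth.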 *1 amine or outer side, *2 acyl side, *3 side chain or, on linkers, in order; H or OH if unused. Where a SMILES comes first, the peptide text is derived from it. Bridges are numbered along the chain shown (N, C = ends). [ ]: non-standard residue; d: D form. ξ: configuration not given here. X4 = CCC(C)C(N[*:1])C(O)CC(=O)O[C@H](C(=O)C(C)C(=O)[*:2])C(C)C; NMeY = CN[C@@H](Cc1ccc(O)cc1)C(=O)O; X9 = O=C([C@@H]1CC(O)CN1[*:1])[*:2]; ξNMeL = CNC(CC(C)C)C(=O)O; ξT = CC(O)C(N)C(=O)O

Test systems include DU-145 prostate; HT29 colon; LOX IMVI melanoma; MDA-MB-435; NCI/ADR-RES ovarian; OVCAR-3 ovarian; OVCAR-4 ovarian; RPMI-8226 leukemia; SF-539 CNS; SW-620 colon.
Holding throughout (assay): inhibition of tumour cell growth, NCI panel, 48 h

Take `CCN(CC)c1ccc(/C=N/NC(=O)c2ccc(Nc3ccnc(C(F)(F)F)c3)cc2)c(O)c1`: the GI50 in the assay with DU-145 prostate was 0.362 µM; with HT29 colon, 0.339 µM; in the assay on LOX IMVI melanoma, 0.14 µM; in the assay with MDA-MB-435 it was 0.454 µM; in the assay with NCI/ADR-RES ovarian it was 0.598 µM; with OVCAR-3 ovarian it was 0.109 µM. The GI50 in the assay on OVCAR-4 ovarian is 0.152 µM; with RPMI-8226 leukemia it was 0.12 µM; in the assay on SF-539 CNS, 0.234 µM; in the assay with SW-620 colon, 0.404 µM. Moreover, the TGI with DU-145 prostate was greater than 46.9 µM; with HT29 colon, 1.68 µM; in the assay on LOX IMVI melanoma, 0.922 µM; in the assay with MDA-MB-435, 7.79 µM; with NCI/ADR-RES ovarian, 17.6 µM; with OVCAR-3 ovarian, greater than 70.1 µM. Further, the TGI in the assay on OVCAR-4 ovarian is greater than 100 µM; with RPMI-8226 leukemia it was 0.555 µM; in the assay with SF-539 CNS, 0.87 µM; in the assay on SW-620 colon, greater than 64.7 µM.

As to `CCCCCC(=O)N1c2ccccc2NC2=C(C(=O)CC(c3ccc(OC)c(OC)c3)C2)C1c1ccc(C(F)(F)F)cc1` (stereo not drawn), the GI50 was greater than 100 µM in the assay on DU-145 prostate; greater than 100 µM in the assay with HT29 colon; greater than 100 µM in the assay on LOX IMVI melanoma; 50.7 µM in the assay on MDA-MB-435; greater than 100 µM in the assay on NCI/ADR-RES ovarian; greater than 100 µM with OVCAR-3 ovarian. The GI50 was 15.8 µM in the assay on OVCAR-4 ovarian, 5.98 µM in the assay on RPMI-8226 leukemia, greater than 100 µM in the assay on SF-539 CNS and greater than 100 µM in the assay on SW-620 colon. The TGI in the assay on DU-145 prostate, in the assay with HT29 colon, with LOX IMVI melanoma, with MDA-MB-435, with NCI/ADR-RES ovarian and with OVCAR-3 ovarian was greater than 100 µM each time. Moreover, the TGI with OVCAR-4 ovarian, in the assay with RPMI-8226 leukemia, in the assay on SF-539 CNS and in the assay on SW-620 colon was greater than 100 µM throughout.

Regarding `COC(=O)c1c2c(c(C)[n+]([O-])c1C)C(=O)C=C(NCc1ccc(Cl)cc1)C2=O`, the GI50 is 1.09 µM with DU-145 prostate; 0.271 µM with HT29 colon; 0.053 µM with LOX IMVI melanoma; 0.0895 µM in the assay with MDA-MB-435; 0.31 µM with NCI/ADR-RES ovarian; 0.208 µM in the assay on OVCAR-3 ovarian. For the same compound, the GI50 with OVCAR-4 ovarian was 0.229 µM; in the assay on RPMI-8226 leukemia, 1.24 µM; in the assay with SF-539 CNS, 0.733 µM; with SW-620 colon it was 0.143 µM. The TGI in the assay on DU-145 prostate is 2.32 µM; in the assay with HT29 colon, greater than 26.6 µM; with LOX IMVI melanoma, 1.6 µM; with MDA-MB-435, 0.229 µM; in the assay on NCI/ADR-RES ovarian, 3.22 µM; in the assay with OVCAR-3 ovarian it was 0.625 µM. Besides, the TGI in the assay with OVCAR-4 ovarian was 1.03 µM; in the assay on RPMI-8226 leukemia, 4.7 µM; in the assay with SF-539 CNS it was 1.98 µM; in the assay with SW-620 colon, 1.37 µM.

Take `O=C(Nc1ccccc1Cl)c1cnc2ccc(C3CCNCC3)cn12`: the GI50 in the assay on DU-145 prostate is 6.62 µM; in the assay on HT29 colon, 1.77 µM; with LOX IMVI melanoma it was 2.07 µM; in the assay on MDA-MB-435 it was 32.6 µM; in the assay with NCI/ADR-RES ovarian, 39.2 µM; in the assay on OVCAR-3 ovarian, 5.6 µM. For the same compound, the GI50 with OVCAR-4 ovarian is greater than 75.1 µM; with RPMI-8226 leukemia, greater than 69 µM; in the assay with SF-539 CNS it was 4.94 µM; in the assay with SW-620 colon it was greater than 100 µM. Besides, the TGI with DU-145 prostate was greater than 100 µM; with HT29 colon, 18.6 µM; with LOX IMVI melanoma, 17 µM; in the assay on MDA-MB-435, greater than 100 µM; in the assay with NCI/ADR-RES ovarian, greater than 100 µM; with OVCAR-3 ovarian, greater than 100 µM. In addition, the TGI in the assay on OVCAR-4 ovarian, in the assay on RPMI-8226 leukemia, with SF-539 CNS and in the assay with SW-620 colon was greater than 100 µM each time.

For `COc1ccc(C2=NNC(c3ccc(-c4ccc(OC)cc4[N+](=O)[O-])o3)C2)cc1` (stereo not drawn), the GI50 with DU-145 prostate was 36.3 µM; in the assay on HT29 colon, 44.9 µM; in the assay on LOX IMVI melanoma it was 41.9 µM; in the assay on MDA-MB-435, 25.3 µM; in the assay with NCI/ADR-RES ovarian, 17.9 µM; with OVCAR-3 ovarian, 21 µM. Moreover, the GI50 is greater than 100 µM in the assay on OVCAR-4 ovarian, 36.8 µM with RPMI-8226 leukemia, 10.1 µM in the assay on SF-539 CNS and 78.2 µM in the assay on SW-620 colon. The TGI with DU-145 prostate is greater than 100 µM; in the assay with HT29 colon it was greater than 100 µM; with LOX IMVI melanoma it was greater than 100 µM; with MDA-MB-435, 91.3 µM; with NCI/ADR-RES ovarian it was 59.9 µM; in the assay on OVCAR-3 ovarian, 62.2 µM. For the same compound, the TGI in the assay with OVCAR-4 ovarian was greater than 100 µM; with RPMI-8226 leukemia, greater than 100 µM; in the assay with SF-539 CNS, 23.1 µM; in the assay with SW-620 colon, greater than 100 µM.

As to `O=C(O)C(/C=C/c1ccco1)=N\Nc1nc(-c2ccc(Cl)cc2)cs1`, the GI50 in the assay with DU-145 prostate is 15.8 µM; with HT29 colon it was 20.9 µM; in the assay with LOX IMVI melanoma, 6.62 µM; in the assay on MDA-MB-435, 11.3 µM; in the assay with NCI/ADR-RES ovarian it was 12.4 µM; in the assay on OVCAR-3 ovarian, 9.51 µM. For the same compound, the GI50 is 9.41 µM in the assay on OVCAR-4 ovarian, 15.8 µM in the assay with RPMI-8226 leukemia, 14.6 µM with SF-539 CNS and 22.5 µM with SW-620 colon. The TGI in the assay with DU-145 prostate, with HT29 colon, in the assay on LOX IMVI melanoma, with MDA-MB-435, in the assay with NCI/ADR-RES ovarian and in the assay with OVCAR-3 ovarian was greater than 50 µM each time. Moreover, the TGI in the assay on OVCAR-4 ovarian, in the assay on RPMI-8226 leukemia, in the assay with SF-539 CNS and in the assay on SW-620 colon was greater than 50 µM in each case.

For the compound `CCC(C)C1NC(=O)C(NC(=O)C(CC(C)C)N(C)C(=O)[C@@H]2CC(O)CN2)C(C)OC(=O)[C@H](Cc2ccc(OC)cc2)N(C)C(=O)[C@@H]2CCCN2C(=O)[C@H](CC(C)C)NC(=O)C(C)C(=O)[C@H](C(C)C)OC(=O)CC1O` (stereo partly drawn) (H-[X9][ξNMeL][ξT][X4]LP[NMeY](Me); ester 3-C), the GI50 is 0.0149 µM in the assay with DU-145 prostate, 4.46 µM in the assay on NCI/ADR-RES ovarian, 0.0166 µM with OVCAR-3 ovarian and 0.0103 µM in the assay with RPMI-8226 leukemia. The TGI was 0.398 µM and 0.55 µM with DU-145 prostate; 1.18 µM and 0.159 µM in the assay on HT29 colon; 0.0294 µM and 0.101 µM with LOX IMVI melanoma; 0.0555 µM and 0.131 µM with MDA-MB-435; greater than 100 µM with NCI/ADR-RES ovarian; 0.11 µM and 0.295 µM in the assay on OVCAR-3 ovarian. The TGI was 0.091 µM and 0.704 µM in the assay with OVCAR-4 ovarian; 0.0152 µM and 0.0395 µM in the assay on SF-539 CNS; 0.287 µM and 0.294 µM in the assay with SW-620 colon.
